Reference: patent US6410585B1, “Inhibitors of protein tyrosine phosphatase” (priority 1997, dated 2002)
Like-named read-outs stand apart in the source and are kept apart here. Each block holds one molecule with its values, some of them ahead of it.

Molecular target: T1, rat PTP1 (Rattus norvegicus, UniProt P20417)
T1 construct: a C-terminal truncation of rat PTP1 (amino acid residues 1-322); GST (N, cleaved yes); made in house; host or cells: E. coli strain TG-1 (pGEX-2T)
T1 sequence (P20417 1-322): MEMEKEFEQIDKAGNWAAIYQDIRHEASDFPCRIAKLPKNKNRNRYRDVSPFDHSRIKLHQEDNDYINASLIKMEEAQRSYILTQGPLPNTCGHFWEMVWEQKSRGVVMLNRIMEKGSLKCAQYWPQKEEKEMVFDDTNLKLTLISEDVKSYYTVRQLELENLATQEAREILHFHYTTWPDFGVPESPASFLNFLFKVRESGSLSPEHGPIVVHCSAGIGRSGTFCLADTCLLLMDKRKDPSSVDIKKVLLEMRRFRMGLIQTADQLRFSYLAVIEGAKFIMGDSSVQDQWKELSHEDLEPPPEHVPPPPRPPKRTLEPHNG
Experiment: PTP1 assay, pNPP hydrolysis (rate of change in A405)
Format: biochemical
Details: for Ki: calculated from IC50-values obtained from a dose-response curve using the inhibition assay
Description: PTP1 Assays: A construct, which consisted of a C-terminal truncation of rat PTP1 (amino acid residues 1-322) (cloned from a rat brain library) with an N-terminal glutathione S-transferase (GST) tag and an adjacent thrombin cleavage site, was inserted into vector plasmid pGEX-2T and transformed into E. coli strain TG-1 under the control of a lac promoter (K. L. Guan and J. E. Dixon (1991) Eukaryotic proteins expressed in Escherichia coli: an improved thrombin cleavage and purification procedure of fusion proteins with glutathione S-transferase. Analyt. Biochem. 192: 262-267). The GST-fusion protein was purified on a glutathione agarose affinity column, the GST tag was cleaved with thrombin, and the active enzyme was recovered for use in an assay to identify PTP inhibitors.
PTP1 activity is measured using either p-nitrophenol phosphate (pNPP) or a triphosphopeptide (that matches residues 1142 through 1153 of the β-subunit and the insulin receptor) as substrate in a 96-well microtiter plate format. An assay pH of 7.2 is used for standard assays (measured 405=9800 at pH 7.2).
Standard assays are conducted at room temperature in a total volume of 0.2 ml that contains Hepes buffer (50 mM, pH 7.2), NaCl (50 mM), EDTA (1 mM), DTT (1 mM), bovine serum albumin (1 mg/ml), pNPP (1 mM) and PTP1 (35 ng/ml). Compounds (2 μl of 10 mM solutions) are pipetted into wells of microtiter plates followed by 198 μl of premixed reaction mix (with PTP1 and pNPP added immediately before use). The rate of change in A405 is recorded for 60 min. Two wells on each plate contain DMSO controls and two wells contain sodium orthovanadate (1 mM) which inhibits PTP1-catalyzed hydrolysis of pNPP completely. Data are expressed as percent inhibition relative to the average of the DMSO controls measured on the same microtiter plate.

[1] = Conc 1 uM, pNPP hydrolysis, Table 1, read-out: PTP1 Inhib % Inhib
[2] = Conc 10 uM, pNPP hydrolysis, Table 1, read-out: PTP1 Inhib % Inhib
[3] = Conc 100 uM, pNPP hydrolysis, Table 1, read-out: PTP1 Inhib % Inhib
[4] = Conc 1 uM, pNPP hydrolysis, Table 2, read-out: PTP1 Inhib PTP1N. % Inhib
[5] = Conc 10 uM, pNPP hydrolysis, Table 2, read-out: PTP1 Inhib PTP1N. % Inhib
[6] = Conc 100 uM, pNPP hydrolysis, Table 2, read-out: PTP1 Inhib PTP1N. % Inhib
[7] = inhibition of pNPP-hydrolysis, compound concentration 1 μM, read-out: % Inhibition
[8] = inhibition of pNPP-hydrolysis, compound concentration 10 μM, read-out: % Inhibition
[9] = inhibition of pNPP-hydrolysis, compound concentration 100 μM, read-out: % Inhibition

inhibition at 1 µM [1]: 17% | inhibition at 10 µM [2]: 64% | inhibition at 100 µM [3]: 94%
SMILES: CCCCCNC(=O)C(Cc1ccc(OC(COO)COO)cc1)NC(=O)NC(CCC(=O)O)C(=O)O (stereo not shown)

inhibition at 1 µM [4]: 4% | inhibition at 10 µM [5]: 29% | inhibition at 100 µM [6]: 78%
SMILES: CCCCCNC(=O)C(Cc1ccc(OC(C(=O)O)C(=O)O)c(F)c1)NC(=O)CCC(=O)O (stereo not shown)

inhibition at 1 µM [1]: 16% | inhibition at 10 µM [2]: 63% | inhibition at 100 µM [3]: 93%
SMILES: CCCC[C@H](NC(=O)[C@H](Cc1ccc(OC(C(=O)O)C(=O)O)cc1)NC(=O)CCC(=O)O)C(N)=O

inhibition at 1 µM [1]: 0% | inhibition at 10 µM [2]: 1% | inhibition at 100 µM [3]: 34%
SMILES: CCCCCNC(=O)C(Cc1ccc(OC(CCOO)COO)cc1)NC(=O)CCC(=O)O (stereo not shown)

inhibition at 1 µM [1]: 14% | inhibition at 10 µM [2]: 57% | inhibition at 100 µM [3]: 91%
SMILES: CCCCCNC(=O)[C@H](Cc1ccc(OC(C(=O)O)C(=O)O)cc1)NC(=O)[C@H](CC(=O)O)NC(=O)CCCCC

inhibition at 1 µM [4]: 1% | inhibition at 10 µM [5]: 14% | inhibition at 100 µM [6]: 70%
SMILES: CCCCC/C=C/[C@H](Cc1ccc(OC(C(=O)O)C(=O)O)cc1)NC(=O)CCC(=O)O

inhibition at 1 µM [1]: 0% | inhibition at 10 µM [2]: 3% | inhibition at 100 µM [3]: 34%
SMILES: CCCCCNC(=O)[C@H](Cc1ccc(CC(C(=O)O)C(=O)O)cc1)NC(=O)CCC(=O)O

inhibition at 1 µM [1]: 2% | inhibition at 10 µM [2]: 14% | inhibition at 100 µM [3]: 63%
SMILES: CCCCCNC(=O)[C@H](Cc1ccc(OC(C(=O)O)C(=O)O)cc1)NC(=O)c1ccccc1C(=O)O

PTP1 Inhib % Inhib (Conc 1 uM, pNPP hydrolysis, Table 1): 3% | inhibition at 1 µM [1]: 2% | inhibition at 10 µM [2]: 21% | PTP1 Inhib % Inhib (Conc 100 uM, pNPP hydrolysis, Table 1): 74% | inhibition at 100 µM [3]: 72%
SMILES: CCCCCNC(=O)C(Cc1ccc(OC(COO)COO)cc1)NC(=O)NCCC(=O)O (stereo not shown)

inhibition at 1 µM [1]: 2% | inhibition at 10 µM [2]: 3% | inhibition at 100 µM [3]: 26%
SMILES: O=C(O)CCC(=O)N[C@@H](Cc1ccc(OC(C(=O)O)C(=O)O)cc1)C(=O)NCCCn1ccnc1

inhibition at 1 µM [1]: 1% | inhibition at 10 µM [2]: 7% | inhibition at 100 µM [3]: 43%
SMILES: O=C(O)CCC(=O)N[C@@H](Cc1ccc(OC(C(=O)O)C(=O)O)cc1)C(=O)NCCc1ccc(O)cc1

inhibition at 1 µM [4]: 8% | inhibition at 10 µM [5]: 57% | inhibition at 100 µM [6]: 93%
SMILES: CCCCCNC(=O)C(Cc1ccc(OC(COO)C(=O)O)cc1)NC(=O)NC(Cc1ccccc1)C(=O)O (stereo not shown)

inhibition at 1 µM [1]: 0% | inhibition at 10 µM [2]: 2% | inhibition at 100 µM [3]: 23%
SMILES: O=C(O)CCC(=O)N[C@@H](Cc1ccc(OC(C(=O)O)C(=O)O)cc1)C(=O)NCCN1CCCCC1

inhibition at 1 µM [1]: 25% | inhibition at 10 µM [2]: 76% | inhibition at 100 µM [3]: 96%
SMILES: CCCCCNC(=O)[C@H](Cc1ccc(OC(C(=O)O)C(=O)O)cc1)NC(=O)[C@H](CCC(=O)O)NC(=O)CCC(=O)O

inhibition at 1 µM [1]: 3% | inhibition at 10 µM [2]: 17% | inhibition at 100 µM [3]: 74%
SMILES: CCCCCCNC(=O)[C@H](Cc1ccc(OC(C(=O)O)C(=O)O)cc1)NC(=O)CCC(=O)O

More lines, now with the values behind:

SMILES: CCCCCNC(=O)C(Cc1ccc(OC(COO)COO)cc1)NC(=O)Nc1cc(C(=O)O)cc(C(=O)O)c1 (stereo not shown)
inhibition at 1 µM [1]: 16% | inhibition at 10 µM [2]: 64% | inhibition at 100 µM [3]: 94%

SMILES: CCCCCNC(=O)C(Cc1ccc(OC(COO)COO)cc1)NC(=O)C(Cc1ccc(OC(C)(C)C)cc1)NC(=O)OC(C)(C)C (stereo not shown)
inhibition at 1 µM [4]: 5% | inhibition at 10 µM [5]: 36% | inhibition at 100 µM [6]: 89%

SMILES: CC(C)OCCCNC(=O)[C@H](Cc1ccc(OCC(=O)O)c(C(=O)O)c1)NC(=O)[C@H](Cc1ccccc1)NC(=O)OC(C)(C)C [Example 157-16, 5-{(2S)-2-({(2S)-2-[(tert-Butoxycarbonyl)amino]-3-phenylpropanoyl}amino)-3-[(3-isopropoxypropyl)amino]-3-oxopropyl}-2-(carboxymethoxy)benzoic Acid]
inhibition at 1 µM [7]: 38% | inhibition at 10 µM [8]: 83% | inhibition at 100 µM [9]: 97%

SMILES: CCCCCNC(=O)[C@H](Cc1ccc(OCC(=O)O)c(C(=O)O)c1)NC(=O)[C@H](Cc1ccccc1)NC(=O)Oc1ccccc1 [Example 158, 2-(Carboxymethoxy)-5-[(2S)-3-oxo-3-(pentylamino)-2-({(2S)-2-[(phenoxycarbonyl)amino]-3-phenylpropanoyl}amino)propyl]benzoic Acid]
Ki: 870 nM | inhibition at 1 µM [7]: 43% | inhibition at 10 µM [8]: 85% | inhibition at 100 µM [9]: 97%

SMILES: O=C(O)CCC(=O)NC(Cc1ccc(OC(COO)COO)cc1)C(=O)NCCCc1ccccc1 (stereo not shown)
inhibition at 1 µM [1]: 8% | inhibition at 10 µM [2]: 23% | inhibition at 100 µM [3]: 72%

SMILES: O=C(O)CCC(=O)NC(Cc1ccc(C(=O)c2ccccc2)cc1)C(=O)NCCc1ccc(OC(COO)COO)cc1 (stereo not shown)
inhibition at 1 µM [4]: 1% | inhibition at 10 µM [5]: 13% | inhibition at 100 µM [6]: 60%

SMILES: CC(C)(C)OC(=O)N[C@@H](Cc1ccccc1)C(=O)N[C@H](CO)Cc1ccc(OCC(=O)O)c(C(=O)O)c1 [Example 148, 5-[(2S)-2-({(2S)-2-[(tert-butoxycarbonyl)amino]-3-phenylpropanoyl}amino)-3-hydroxypropyl]-2-(carboxymethoxy)benzoic Acid]
inhibition at 1 µM [7]: 5% | inhibition at 10 µM [8]: 31% | inhibition at 100 µM [9]: 80%

SMILES: CCCCCNC(=O)C(Cc1ccc(OC(COO)COO)cc1)NC(=O)[C@H](Cc1ccc(C(=O)c2ccccc2)cc1)NC(C)=O (stereo partly shown)
inhibition at 1 µM [4]: 9% | inhibition at 10 µM [5]: 42% | inhibition at 100 µM [6]: 87%

SMILES: CC(C)(C)OC(=O)N[C@@H](Cc1ccccc1)C(=O)N[C@@H](Cc1ccc(OCC(=O)O)c(C(=O)O)c1)C(=O)NOCCCc1ccccc1 [Example 157-28, 5-{(2S)-2-({(2S)-2-[(tert-Butoxycarbonyl)amino]-3-phenylpropanoyl}amino)-3-oxo-3-[(3-phenylpropoxy)amino]propyl}-2-(carboxymethoxy)benzoic Acid]
Ki: 400 nM

SMILES: O=C(O)COc1ccc(C[C@H](NC(=O)c2cccnc2)C(=O)NCCCCc2ccccc2)cc1C(=O)O [Example 154-11, 2-(carboxymethoxy)-5-{(2S)-3-oxo-3-[(4-phenylbutyl)amino]-2-[(3-pyridinylcarbonyl)amino]propyl}benzoic acid]
inhibition at 1 µM [7]: 22% | inhibition at 10 µM [8]: 73% | inhibition at 100 µM [9]: 95%

SMILES: O=C(O)COc1ccc(C[C@H](NC(=O)c2ccccc2)C(=O)NCCCCc2ccc(Cl)cc2)cc1C(=O)O [Example 154-19, 5-((2S)-2-(benzoylamino)-3-{[4-(4-chlorophenyl)butyl]amino}-3-oxopropyl)-2-(carboxymethoxy)benzoic acid]
inhibition at 1 µM [7]: 40% | inhibition at 10 µM [8]: 55% | inhibition at 100 µM [9]: 98%

SMILES: CCCCCNC(=O)C(Cc1ccc(OC(COO)COO)cc1)NC(=O)C(Cc1ccc(C(=O)c2ccccc2)cc1)NC(=O)CCc1ccc(O)cc1 (stereo not shown)
inhibition at 1 µM [4]: 9% | inhibition at 10 µM [5]: 47% | inhibition at 100 µM [6]: 89%

SMILES: CC(C)(C)OC(=O)N[C@@H](Cc1ccccc1)C(=O)N[C@@H](Cc1ccc(OCC(=O)O)c(C(=O)O)c1)C(=O)NCCCCc1ccccc1 [Example 157-2, 5-{(2S)-2-({(2S)-2-[(tert-Butoxycarbonyl)amino]-3-phenylpropanoyl}amino)-3-oxo-3-[(4-phenylbutyl)amino]propyl}-2-(carboxymethoxy)benzoic Acid]
inhibition at 1 µM [7]: 64% | inhibition at 10 µM [8]: 93% | inhibition at 100 µM [9]: 98%

SMILES: CC(C)(C)OC(=O)N[C@@H](Cc1ccccc1)C(=O)N[C@@H](Cc1ccc(OCC(=O)O)c(C(=O)O)c1)C(=O)NCCCO [Example 157-21, 5-{(2S)-2-({(2S)-2-[(tert-Butoxycarbonyl)amino]-3-phenylpropanoyl}amino)-3-[(3-hydroxypropyl)amino]-3-oxopropyl}-2-(carboxymethoxy)benzoic Acid]
inhibition at 1 µM [7]: 24% | inhibition at 10 µM [8]: 73% | inhibition at 100 µM [9]: 95%

SMILES: O=C(O)CCC(=O)NC(Cc1ccc(OC(COO)COO)cc1)C(=O)NCc1cccc2ccccc12 (stereo not shown)
inhibition at 1 µM [1]: 7% | inhibition at 10 µM [2]: 18% | inhibition at 100 µM [3]: 61%
